Reference: patent US10328116B2, “Combinations of proteasome inhibitors and cyclic peptides” (BIG DNA LTD, priority 2014, dated 2019)
Where two headings read alike, the source gives them in different places.

How the values were obtained:
[1] = test system: NCI H-929 human multiple myeloma cells; assay: NCI-H929 sub-cutaneous xenograft mouse tumor model, 'high' bortezomib dose (Example 7); type: in vivo; conditions: for Complete response (mice) / No response (mice) / Partial response (mice) / Total RR % (PR+CR): bortezomib 1 mg/kg IV biweekly, cilengitide 45 mg/kg IP QD, N = 10 mice per group
From the text: This was then continued until Day 21.
Partial response (PR) is defined as the first measurement of the tumor volume being 50% or less of its Day 1 volume for three consecutive measurements during the course of the study, and equal to or greater than 13.5 mm^3 for one or more of these three measurements. In a complete response (CR), the tumor volume was less than 13.5 mm^3 for three consecutive measurements during the course of the study. Total response rate (RR) is the sum of PR+CR. Treatment began on day 1 and was stopped on Day 21.

[2] = test system: CWR22 human prostate cancer xenografts; conditions: cited from earlier work
[3] = test system: WSU-DLCL2 lymphoma xenograft; conditions: at MTD; cited from earlier work
[4] = test system: NCI H-929 Multiple Myeloma Cell Line; assay: NCI H-929 sub-cutaneous xenograft, varied BTZ dose, TGI and TTE (Example 8); type: in vivo, mouse; conditions: endpoint day 18
Protocol: Cilengitide or vehicle was supplied as daily intra-peritoneal injection (45 mg/kg). […] After this point, dosing was continued in groups receiving 0.2 mg/kg and 0.5 mg/kg BTZ±cilengitide until day 31 to allow comparative tumour growth delay (i.e. difference in time to endpoint (TTE). […] TTE was calculated as TTE=[log(endpoint volume)-b]/m where TTE is expressed in days, endpoint volume is expressed in mm^3, b is the intercept, and m is the slope of the line obtained by linear regression of a log-transformed tumour growth data set. TTE values were plotted in Kaplan-Meier diagrams (FIGS. 9 and 10).

20S proteasome = 20S proteasome (Homo sapiens, UniProt P20618+P28074); conditions: cited from earlier work
[5] = test system: chymotrypsin-like activity of the proteasome; conditions: highest dose used in the phase I trial; cited from earlier work
HEK293 cells = assay: Sulforhodamine B relative cell growth assay in HEK293 cells (Examples 1-3); type: cell-based; conditions: HEK293 (αvβ3 +ve); 10 μM proteasome inhibitor, absence of cRGDfK
Protocol: Established methodology was used to prepare 80-100% confluent monolayers of HEK293 cells in T75 flasks. Cells were cultured in DMEM (Lonza) supplemented with 10% FBS (Gibco), 2 mM L-glutamine, 100 U/mL penicillin and 100 μg/mL streptomycin (“complete DMEM”).
The cells in T75 flasks were trypsinised and resuspended in complete DMEM. The cells were counted using a Neubauer chamber and seeded at approximate density of 3×10^4 cells/cm^2 and 7500 cells/cm^2 in 96 well flat bottomed tissue culture plates (Corning) 0.1 mL cell suspension per well. Cells were incubated for 24 hours at 37° C./5% CO2 (humidified).
To provide a working stock, BTZ was diluted to 10 mM in DMSO. […]
Briefly: medium was removed from wells and replaced with an equal volume of PBS. […] Optical density (OD570nm) was determined using an ELISA plate reader (Dynex MRX, Dynex Technologies).
In total, 5 replicates of the experiment were carried out. Cells treated with peptide/BTZ mixtures or control mixtures were incubated for 24 hours at 37° C./5% CO2 (humidified) then analysed by sulforhodamine B assay.
The average of the background measurements (i.e. no cells, medium only) was subtracted from each reading. ‘Ti’ is OD570nm following 24 hours treatment with drugs. […]
Using these equations, control cell growth is assigned a relative cell growth value of 100% and all cell growth values are calculated relative to this figure. […]

[6] = phase II trials; heavily pretreated patient population; cited from earlier work
Cos7 cells = assay: Sulforhodamine B relative cell growth assay in Cos7 cells (Example 2); type: cell-based; conditions: COS-7 (αvβ3 −ve); 10 μM proteasome inhibitor, absence of cRGDfK
[7] = test system: T47D breast cancer cell line; assay: Sulforhodamine B viability, isobologram and combination index in T47D cells (Examples 4-5); type: cell-based; conditions: single agent at its IC50
Protocol: For assessment of combined BTZ and cilengitide toxicity, T47D cells were seeded at a density of 7500 cells/cm^2 in 96-well cell culture plates and incubated for 24 hours. Cilengitide was diluted to 20 μM in complete DMEM, then 3 serial tenfold dilutions of this were performed in complete DMEM (2 μM, 200 nM and 20 nM). Complete DMEM containing no cilengitide was provided for negative controls.
These dilutions (or DMSO for wells containing no BTZ) were added to aliquots of complete DMEM containing 0-20 μM cilengitide for a 1/150 dilution. Aliquots (0.1 mL) of each mixture were added to wells already containing 0.1 mL medium (in duplicate), resulting in a matrix of cilengitide (10 nM-10 μM) and/or BTZ (1 nM-10 μM) or neither agent (diluent only).
OD570nm readings were divided by those resulting from negative control (diluent only) wells and expressed as a percentage. Three independent replicates of this experiment were carried out.
The isoboles were obtained similarly by extrapolation of points representing 50% reduction in viability from line graphs of % viability versus concentration of one agent at variable concentration with the other agent supplied at a fixed concentration. […]

DP54-Luc model = conditions: in vivo; cited from earlier work
PHTX22L xenografts = conditions: MTD level treatment; cited from earlier work
Oci-Ly7-Luc = conditions: disseminated lymphoma; cited from earlier work
chymotrypsin-like sites = chymotrypsin-like sites (Homo sapiens, UniProt P28074); conditions: cited from earlier work
Sequence of chymotrypsin-like sites (P28074 60-263): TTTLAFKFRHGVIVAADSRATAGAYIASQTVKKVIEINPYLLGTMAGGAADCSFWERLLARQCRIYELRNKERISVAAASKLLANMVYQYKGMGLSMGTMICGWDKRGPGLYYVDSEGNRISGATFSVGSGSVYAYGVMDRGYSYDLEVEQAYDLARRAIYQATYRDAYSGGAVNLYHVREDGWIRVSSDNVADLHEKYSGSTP

[8] = at maximum tolerated dose (MTD)

SMILES: CC(C)C[C@H](NC(=O)[C@H](Cc1ccccc1)NC(=O)c1cnccn1)B(O)O [Bortezomib]
- animals that relapsed (complete relapse) ([1]; By Day 42, of 10 animals per group): 3
- anti-tumoral activity [2, 8]: effective anti-tumoral activity
- anti-tumoral activity [3]: ineffective
- Tumour growth inhibition (TGI) ([4]; 0.5 mg/kg BTZ and below, without cilengitide): virtually ineffective
- Tumour growth inhibition (TGI) ([4]; BTZ doses of 0.7 mg/kg and greater, biweekly i.v.): almost complete TGI
- proteasome dissociation half-life (20S proteasome): approximately 110 minutes

SMILES: CC(C)C[C@H](NC(=O)[C@H](CCc1ccccc1)NC(=O)CN1CCOCC1)C(=O)N[C@@H](Cc1ccccc1)C(=O)N[C@@H](CC(C)C)C(=O)[C@@]1(C)CO1 [Carfilzomib]
- inhibition of the chymotrypsin-like activity of the proteasome in blood of patients [5]: 88%
- cell growth relative to untreated control cells (HEK293 cells): greater activity than ixazomib, delanzomib and oprozomib
- partial response rate [6]: 24%
- cell growth relative to untreated control cells (Cos7 cells): greater activity than ixazomib, delanzomib and oprozomib

SMILES: CC(C)[C@H]1C(=O)N[C@@H](CCCN=C(N)N)C(=O)NCC(=O)N[C@@H](CC(=O)O)C(=O)N[C@H](Cc2ccccc2)C(=O)N1C [Cilengitide]
- CI (combination index) [7]: 1.00
- Complete response (mice) ([1]; Day 1): 0
- No response (mice) ([1]; Day 1): 10
- Partial response (mice) ([1]; Day 1): 0
- Total RR % (PR+CR) ([1]; Day 1): 0%
- Complete response (mice) ([1]; Day 4): 0
- No response (mice) ([1]; Day 4): 10
- Partial response (mice) ([1]; Day 4): 0
- Total RR % (PR+CR) ([1]; Day 4): 0%
- Complete response (mice) ([1]; Day 8): 0
- No response (mice) ([1]; Day 8): 10
- Partial response (mice) ([1]; Day 8): 0
- Total RR % (PR+CR) ([1]; Day 8): 0%
- Complete response (mice) ([1]; Day 12): 0
- No response (mice) ([1]; Day 12): 10
- Partial response (mice) ([1]; Day 12): 0
- Total RR % (PR+CR) ([1]; Day 12): 0%
- Complete response (mice) ([1]; Day 15): 0
- No response (mice) ([1]; Day 15): 10
- Partial response (mice) ([1]; Day 15): 0
- Total RR % (PR+CR) ([1]; Day 15): 0%
- Complete response (mice) ([1]; Day 18): 0
- No response (mice) ([1]; Day 18): 10
- Partial response (mice) ([1]; Day 18): 0
- Total RR % (PR+CR) ([1]; Day 18): 0%
- Complete response (mice) ([1]; Day 21): 0
- No response (mice) ([1]; Day 21): 10
- Partial response (mice) ([1]; Day 21): 0
- Total RR % (PR+CR) ([1]; Day 21): 0%

SMILES: CC(C)C[C@H](NC(=O)CNC(=O)c1cc(Cl)ccc1Cl)B(O)O [Ixazomib, [(1R)-1-[[2-[(2,5-dichlorobenzoyl)amino]acetyl]amino]-3-methyl-butyl]boronic acid]
- alleviation of osteolytic bone disease (DP54-Luc model): effective in the alleviation of osteolytic bone disease
- anti-tumoral activity ([2]; at half the MTD): more effective than bortezomib
- anti-tumoral activity [2, 8]: effective anti-tumoral activity
- anti-tumoral activity [3]: significant anti-tumoral activity
- proteasome dissociation half-life (20S proteasome): approximately 18 minutes
- release from the proteasome relative to bortezomib (20S proteasome; faster than bortezomib): approximately 6 fold
- anti-tumoral effect (PHTX22L xenografts): only ixazomib was found to exhibit an anti-tumoral effect
- antitumoral effect (Oci-Ly7-Luc): improved antitumoral effect compared with bortezomib

SMILES: C[C@@]12OC(=O)[C@]1([C@@H](O)[C@@H]1C=CCCC1)NC(=O)[C@@H]2CCCl [Marizomib]
- inhibition of the chymotrypsin-like sites (chymotrypsin-like sites): up to 100%
